Results: patent publication US8999964B2, “TGR5 modulators and methods of use thereof” (Intercept Pharmaceuticals, Inc., priority 2008, dated 2015)
Read-outs that look alike come from different tables or passages of the source. Marks after values point to notes of the source that are not given here.

Columns and labels:
[1] = target: T1, hFXR (Homo sapiens, UniProt Q96RI1); test: Alphascreen coactivator recruitment assay on FXR; details: Table 6; coactivator recruitment (Alphascreen)
T1 sequence (Q96RI1 262-486 limits assumed): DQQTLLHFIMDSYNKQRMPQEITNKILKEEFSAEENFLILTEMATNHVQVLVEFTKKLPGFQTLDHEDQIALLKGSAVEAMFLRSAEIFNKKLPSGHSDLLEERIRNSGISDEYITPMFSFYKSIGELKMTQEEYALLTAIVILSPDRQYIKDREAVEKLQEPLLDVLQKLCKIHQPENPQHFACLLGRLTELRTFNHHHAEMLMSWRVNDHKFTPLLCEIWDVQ
Protocol: Activity on FXR was assayed by using Alphascreen technology in a coactivator recruitment assay. AlphaScreen is a bead-based chemistry assay used to study biomolecular interactions. Binding of molecules captured on the beads leads to an energy transfer from one bead to the other, ultimately producing a luminescent signal. When the partners interact, chemical energy is transferred from Donor to Acceptor beads and a signal is produced. Upon bile acids stimulation the GST-FXR-LBD interacts with the Src-1 peptide. Anti-GST-coated Acceptor beads were used to capture the GST-fusion FXR-LBD whereas the biotinylated-SRC-1 peptide was captured by the streptavidin Donor beads. Upon illumination at 680 nm chemical energy is transferred from Donor to Acceptor beads across the complex streptavidin-Donor/Src-1-Biotin/GSTFXR-LBD/Anti-GST-Acceptor and a signal is produced. The assay was performed in white, low-volume, 384-well Optiplates (PerkinElmer) using a final volume of 25 μl containing final concentrations of 10 nM of purified GST-tagged FXR-LBD protein, 30 nM biotinylated Src-1 peptide, 20 μg/ml anti-GST acceptor beads acceptor beads and 10 μg/ml of streptavidin donor bead (PerkinElmer). […] After the addition of the detection mix (acceptor and donor beads), the plates were incubated in the dark for 4 h at room temperature and then were read with an Envision microplate analyzer (PerkinElmer). […]

[2] = Bile fistula rat, femoral (iv) infusion: bile flow, biliary secretion, metabolism; details: iv infusion, bile fistula rat
[3] = in vitro; details: human
[4] = Critical micellar concentration by surface tension measurements; assay type: physicochemical; details: […] NaCl water solution
Protocol: The critical micellar concentration (CMC) was determined by surface tension (ST) measurements using a maximum bubble-pressure method which give surface tension values slightly affected by potential impurities […] static methods. […] The surface tension values were plotted against the logarithm of the bile salt concentration; the regression lines corresponding to the two parts of the curve (monomeric and micellar phases) were calculated using the method of least squares, and the intersection of the lines was taken as the CMC value. From the ST vs concentration curves the value of the surface tension at the CMC (equilibrium between monomers and multimers species) was also calculated giving information about the detergency power which is related to the size of the micelles with associate surface tension lowering capacity. The CMC was evaluated by surface tension measurements in non equilibrium conditions i.e. in conditions that impurities slightly affect the surface tension results (FIG. 6). […] The presence of a hydroxyl group in the C-16 beta position reduces the hydrophobic area responsible for back to back interaction, which is to form micelles and therefore, the micelles are small and poorly detergent. This property confers to the molecule a low toxicity when accumulated in a given biological fluid or organ.

[5] = tested on: HepG2 cells; test: HepG2 apoptosis (caspase-3 activation); assay type: cell-based; details: Homo sapiens, HepG2, 4 h, read-out: APOPTOSIS Caspase-3 activation EC50
[6] = tested on: HepG2 cells; test: HepG2 necrosis (LDH release); assay type: cell-based; details: Homo sapiens, HepG2, 4 h, read-out: NECROSIS LDH release EC50
[7] = 1-Octanol/water partition coefficient (shake-flask); details: bile acids as ionized species, pH 8
Protocol: (§1) The octanol/water partition coefficient was measured for molecules in their ionized form and therefore the carboxy analogues were studied at a relatively high pH (8 to 9) to ensure full ionization of the carboxyl group. The 1-Octanol/water partition coefficient (log P) was evaluated using a conventional shake-flask procedure. […] The aqueous buffer was previously pre-saturated with 1-octanol, 5 ml of 1-octanol pre-saturated with water was then added and the samples were left to equilibrate for 2 weeks under continuous stirring at room temperature. After centrifugation the two phases were carefully separated. […] The flow rate was 150 μal/min and the column was maintained at 45° C.

[8] = target: T2, bovine serum albumin (Bos taurus, UniProt P02769); test: Albumin binding by equilibrium dialysis; assay type: in vitro ADME; design: 5% bovine serum albumin-saline solution (pH 7.2); from tissue; host or cells: bovine serum (by the name of the product); details: 100 μM BA in 5% bovine serum albumin-saline, pH 7.2
T2 sequence (P02769 25-607): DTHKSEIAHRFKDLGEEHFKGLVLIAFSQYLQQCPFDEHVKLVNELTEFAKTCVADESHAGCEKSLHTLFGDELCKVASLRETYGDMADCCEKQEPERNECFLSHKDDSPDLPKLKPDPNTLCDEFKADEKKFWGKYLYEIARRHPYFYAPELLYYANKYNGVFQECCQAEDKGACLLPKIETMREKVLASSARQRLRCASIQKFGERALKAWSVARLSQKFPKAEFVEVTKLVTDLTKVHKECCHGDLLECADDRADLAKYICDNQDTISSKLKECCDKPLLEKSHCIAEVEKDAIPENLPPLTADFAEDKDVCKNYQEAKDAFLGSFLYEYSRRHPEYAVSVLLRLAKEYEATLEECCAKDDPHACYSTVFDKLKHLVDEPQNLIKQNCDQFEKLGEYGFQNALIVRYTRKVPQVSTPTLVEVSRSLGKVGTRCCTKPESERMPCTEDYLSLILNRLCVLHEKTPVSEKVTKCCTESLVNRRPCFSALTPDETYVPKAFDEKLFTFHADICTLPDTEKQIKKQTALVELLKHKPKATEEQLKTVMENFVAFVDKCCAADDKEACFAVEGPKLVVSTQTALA
Protocol: The extent of albumin binding was evaluated by equilibrium dialysis at a fixed BA-albumin ratio. Each BA was dissolved at a concentration of 100 μM in 5% bovine serum albumin-saline solution (pH 7.2) and left to stand for 24 h at 25° C. Two milliliters of this solution was dialyzed in cellulose sacs having a molecular weight cut-off of 12,000-14,000 Dalton against 25 ml of saline solution. The system was equilibrated by gently shaking for 72 h at 25° C. BA concentrations of the dialyzed solution (corresponding to the free unbound fraction) and of the starting solution were determined with HPLC-ESI-MS/MS in the same conditions of the previous analysis.
The percentage of albumin binding was calculated from the initial BA concentration and from the unbound concentration in the dialyzed fraction.

[9] = tested on: intestinal bacteria; test: In vitro metabolic stability in human stools culture; assay type: in vitro ADME
Protocol: Homogenized fresh human stools (500 mg) were transferred into sterile vials to which 5 mL of sterilized chopped meat-glucose medium (Scott Lab., Fiskville, R.I.) was added. BAs were then added at a final concentration of 0.05 mM. Vials were incubated at 37° C.; then, at 0, 1, 2, 4, 8 and 24 h after the addition of the BA, the reaction was stopped with 150 μL of 30% KOH. The samples were centrifuged at 3500 rpm for 10 min; from the supernatant the BA were isolated by C-18 solid-phase extraction and analyzed by TLC and HPLC-ES-MS/MS.
Thin-layer chromatography (TLC), utilizing silica gel 0.25 mm thickness plates (Merck, Darmstat, Germany), was employed as the first screening test. The solvent system used for the separation of conjugated BA was composed of propionic acid/isoamyl acetate/water/N-propanol (3:4:1:2, v/v/v/v; solvent I), and that of the unconjugated BA was acetic acid/carbon tetrachloride/isopropyl ether/isoamyl acetate/water/N-propanol/benzene (1:4:6:8:2:2, v/v/v/v/v/v; solvent II).

[10] = target: T2, bovine serum albumin; details: cited from earlier work
[11] = […] NaCl water solution; *values from literature; cited from earlier work
[12] = previous study, cited from earlier work
[13] = tested on: HepG2 cells; test: HepG2 cytotoxicity (ATP decrease, ATP-Lite); details: read-out: CYTOTOXICITY ATP decrease EC50, 4 h
[14] = pH 1
[15] = target: T3, VDR (Homo sapiens, UniProt P11473); test: VDR activation, NR selectivity assay; assay type: biochemical; details: Table 6
T3 construct: purchased Invitrogen
T3 sequence (P11473 127-423 limits assumed): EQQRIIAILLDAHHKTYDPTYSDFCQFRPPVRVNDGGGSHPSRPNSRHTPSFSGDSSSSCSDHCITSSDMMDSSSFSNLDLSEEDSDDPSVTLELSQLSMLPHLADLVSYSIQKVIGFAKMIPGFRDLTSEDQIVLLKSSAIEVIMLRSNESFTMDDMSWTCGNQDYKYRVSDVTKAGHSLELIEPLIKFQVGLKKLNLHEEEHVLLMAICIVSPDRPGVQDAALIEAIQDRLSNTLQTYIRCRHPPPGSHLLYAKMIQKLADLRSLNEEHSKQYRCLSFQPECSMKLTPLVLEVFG

[16] = target: T4, CAR (Homo sapiens, UniProt Q14994); test: CAR coactivator recruitment (Lanthascreen); assay type: biochemical; details: Table 6; *: data representing inverse agonism; read-out: CAR Activation EC50
T4 construct: purchased Invitrogen
T4 sequence (Q14994 109-352 limits assumed): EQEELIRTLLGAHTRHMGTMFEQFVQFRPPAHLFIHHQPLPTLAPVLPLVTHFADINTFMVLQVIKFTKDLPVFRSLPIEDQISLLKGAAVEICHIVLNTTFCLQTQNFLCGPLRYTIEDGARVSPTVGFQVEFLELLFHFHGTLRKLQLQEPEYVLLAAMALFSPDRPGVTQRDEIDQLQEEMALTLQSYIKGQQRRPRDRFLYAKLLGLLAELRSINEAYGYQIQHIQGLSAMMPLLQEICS

[17] = tested on: HepG2 cells
[18] = target: T5, LXRα (Homo sapiens, UniProt Q13133); test: LXR coactivator recruitment (Alphascreen); assay type: biochemical; details: Table 6
T5 sequence (Q13133 1-447): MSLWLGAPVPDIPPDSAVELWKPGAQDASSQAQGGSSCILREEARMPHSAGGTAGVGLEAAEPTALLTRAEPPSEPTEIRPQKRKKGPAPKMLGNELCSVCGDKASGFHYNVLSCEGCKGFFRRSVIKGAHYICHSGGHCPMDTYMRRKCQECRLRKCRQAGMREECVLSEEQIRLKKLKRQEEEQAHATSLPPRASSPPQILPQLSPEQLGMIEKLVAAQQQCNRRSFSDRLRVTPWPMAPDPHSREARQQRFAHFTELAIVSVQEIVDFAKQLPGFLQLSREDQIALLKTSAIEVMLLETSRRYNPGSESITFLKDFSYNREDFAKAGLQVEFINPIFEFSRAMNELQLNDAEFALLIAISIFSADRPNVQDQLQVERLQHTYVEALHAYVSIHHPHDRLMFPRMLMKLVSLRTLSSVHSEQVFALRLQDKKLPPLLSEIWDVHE

[19] = target: T6, PPARδ (Homo sapiens, UniProt Q03181); test: PPARδ activation, NR selectivity assay; details: Table 6
T6 sequence (Q03181 211-439 limits assumed): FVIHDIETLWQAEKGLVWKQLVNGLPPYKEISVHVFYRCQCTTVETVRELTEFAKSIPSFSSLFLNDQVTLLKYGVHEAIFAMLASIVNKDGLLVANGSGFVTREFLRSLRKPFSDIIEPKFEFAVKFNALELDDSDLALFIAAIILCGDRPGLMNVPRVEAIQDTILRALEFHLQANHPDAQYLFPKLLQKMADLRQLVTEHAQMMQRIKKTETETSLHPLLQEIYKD

[20] = pH 8
Protocol: as §1

## C[C@H](CCC(=O)O)[C@H]1CC[C@H]2[C@@H]3[C@H](O)C[C@@H]4C[C@H](O)CC[C@]4(C)[C@H]3C[C@H](O)[C@]12C [CA, cholic acid, reference compound]
[1]
  FXR Activation EC50: No activity

## C[C@H](CCC(=O)O)[C@H]1CC[C@H]2[C@@H]3[C@H](O)C[C@@H]4C[C@H](O)CC[C@]4(C)[C@H]3CC[C@]12C [CDCA, chenodeoxycholic acid, reference compound]
[2]
  Bile flow with respect to control: No significant differences
[2]; control 70
  Maximum bile flow rate: 4.8 mL/h/kg
[3]
  EC50 at 4 h: 650 µM
[4]
  CMC […] Na+: 3.2 mM
  STCMC: Surface Tension at CMC: 45.5 Dyne/cm
[5]
  EC50: 890 µM
[6]
  EC50: > 1000 µM
[7]
  LogPA-: 1-octanol-water partition coefficient: 2.2
[8]
  Albumin Binding: 93%
[9]
  Metabolism in human stool cultures: almost completely metabolized
[9]; 7α-dehydroxylation, 0.05 mM, 37° C.
  Half-life time in human stool cultures: almost one hour

## C[C@H](CCC(=O)O)[C@H]1CCC2C3C(CC[C@@]21C)[C@@]1(C)CC[C@@H](O)CC1[C@@H](C)[C@@H]3O (some centres unmarked) [Compound 6MUDCA]
[10]
  Albumin Binding: 80* %
[11]
  CMC […] Na+: 4.2* mM

## C[C@H](CCC(=O)O)[C@H]1CC[C@H]2[C@@H]3CC[C@@H]4C[C@H](O)CC[C@]4(C)[C@H]3CC[C@]12C [LCA, lithocholic acid]
[5]
  EC50: 65 µM
[6]
  EC50: 105 µM

## CC1(C)CC[C@]2(C(=O)O)CC[C@]3(C)C(=CC[C@@H]4[C@@]5(C)CC[C@H](O)C(C)(C)[C@@H]5CC[C@]43C)[C@@H]2C1 [OA, oleanolic acid]
[12]; 100 mg/kg/day
  Toxicity in animals: some signs of toxicity
[12]; lower dose than 100 mg/kg/day
  Tolerability in animals: well tolerated

## CN[C@@H]1C[C@H]2O[C@@](C)([C@@H]1OC)n1c3ccccc3c3c4c(c5c6ccccc6n2c5c31)C(=O)NC4 [Staurosporine]
[13]
  EC50: 15 µM

## C[C@H](CCC(=O)NCCS(=O)(=O)O)[C@H]1CC[C@H]2[C@@H]3[C@H](O)C[C@@H]4C[C@H](O)CC[C@]4(C)[C@H]3CC[C@]12C [TCDCA]
[10]
  Albumin Binding: 70* %
[14]
  Ws: water solubility: hs
[11]
  CMC […] Na+: 3.0* mM

## C[C@H](CCC(=O)NCCS(=O)(=O)O)[C@H]1CC[C@H]2[C@@H]3[C@@H](O)C[C@@H]4C[C@H](O)CC[C@]4(C)[C@H]3CC[C@]12C [TUDCA]
[10]
  Albumin Binding: 67* %
[14]
  Ws: water solubility: hs
[11]
  CMC […] Na+: 2.2* mM

## C[C@H](CCC(=O)O)[C@H]1CC[C@H]2[C@@H]3[C@@H](O)C[C@@H]4C[C@H](O)CC[C@]4(C)[C@H]3CC[C@]12C [UDCA]
[15]
  VDR Activation EC50: No activity
[16]
  EC50: > 250 µM
[17]
  EC50: > 1000 µM
[4]
  CMC […] Na+: 6.0 mM
  STCMC: Surface Tension at CMC: 50.5 Dyne/cm
[14]
  Ws: water solubility: 7.5 µM
[18]
  LXRα Activation EC50: No activity
[19]
  PPARδ Activation EC50: No activity
[8]
  Albumin Binding: 94%
[20]
  LogPA-: 1-octanol-water partition coefficient: 2.2
